The source of these data is US20120157471A1, “BENZIMIDAZOLE DERIVATIVES” (PFIZER INC., priority 2009, published 2012).

In general, IC50 refers to the concentration that inhibits the measured activity by half.

In experiment [1] the target is T1, human Smo (amino acids 181-787) (Homo sapiens, UniProt Q99835).
T1 construct: expressed in transfected cells; membrane preparation
The experiment in a line: Smo radioligand competition binding assay (displacement of 3H-PF-03451358 from HEK293 membranes). Conditions: for inhibition at 0.05 µM: 0.05 μM test compound, displacement of 3H-PF-03451358, read-out: SMO % inh. @ 0.05 μM; for IC50: radioligand competition binding. In a few lines: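 Membranes (40 μg protein/well) from HEK293 expressing murine Igk-leader-fused Smo 181-787 incubated 2 h at room temperature with 3 nM 3H-PF-03451358 in Tris pH 7.5/NaCl/MgCl2/EDTA/BSA buffer; filter-bound counts by scintillation. Nonspecific binding with 30 μM cold PF-03451358; IC50 from four-parameter fit of % inhibition.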
For orientation: Loss of bound radioactivity is the signal in a displacement assay; it reports binding, not function.

The test system of the next experiment is Gli-Luc/MEF cells (Smo). The experiment is described as follows: Gli-Luc/MEF assay (Shh-stimulated luciferase reporter under the Gli response element). Type of experiment: cell-based, mouse. The note with it: Mus musculus, MEF, 48 h. In a few lines: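 Mouse Gli-Luc/MEF cells dosed with compound (3-fold series, […]) plus 2 μg/mL recombinant mouse Shh, then incubated 48 h at 37° C, 5% CO2. Bright-Glo luminescence read; IC50 calculated from inhibition of Shh-stimulated luciferase.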
Background: A reporter such as luciferase makes a cellular process visible.

T1 sequence (Q99835 181-787): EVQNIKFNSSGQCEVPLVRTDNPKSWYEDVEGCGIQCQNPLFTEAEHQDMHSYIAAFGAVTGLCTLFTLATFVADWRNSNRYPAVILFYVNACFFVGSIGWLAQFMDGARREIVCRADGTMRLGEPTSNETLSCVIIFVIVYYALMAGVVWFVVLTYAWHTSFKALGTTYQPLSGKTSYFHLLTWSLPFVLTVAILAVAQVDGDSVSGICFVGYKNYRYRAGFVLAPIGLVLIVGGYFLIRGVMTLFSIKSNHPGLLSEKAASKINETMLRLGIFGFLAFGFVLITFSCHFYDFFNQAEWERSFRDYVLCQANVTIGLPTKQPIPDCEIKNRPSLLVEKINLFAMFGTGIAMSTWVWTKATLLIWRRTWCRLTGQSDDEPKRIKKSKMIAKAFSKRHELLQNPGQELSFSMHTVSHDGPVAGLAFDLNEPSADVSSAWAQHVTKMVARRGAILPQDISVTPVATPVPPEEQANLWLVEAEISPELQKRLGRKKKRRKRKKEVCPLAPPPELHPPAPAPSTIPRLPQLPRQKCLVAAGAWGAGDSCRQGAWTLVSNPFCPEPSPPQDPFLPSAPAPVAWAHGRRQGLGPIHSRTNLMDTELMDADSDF

As to `C[C@@H]1CN(c2cc(-c3nc4ccccc4n3C)c(Cl)cn2)CCN1S(C)(=O)=O` [Example A-158, 2-{5-chloro-2-[(3R)-3-methyl-4-(methylsulfonyl)piperazin-1-yl]pyridin-4-yl}-1-methyl-1H-benzimidazole], in experiment [1], the inhibition at 0.05 µM stood at 99% and the IC50 came to 9 nM. The same molecule gave an IC50 in the experiment on Gli-Luc/MEF cells (Smo) of 2 nM.
The like results for `CC(=O)N1[C@@H]2CC[C@H]1CN(c1cc(-c3nc4ccccc4n3C)c(Cl)cn1)C2` [Example A-187, 2-{2-[(1R,5S)-8-acetyl-3,8-diazabicyclo[3.2.1]oct-3-yl]-5-chloropyridin-4-yl}-1-methyl-1H-benzimidazole] were, in that order, 90%, 27 nM and 10 nM.
The like results for `COC(=O)N1CCCN(c2cc(-c3nc4ccccc4n3C)ccn2)CC1` [Example A-156, methyl 4-[4-(1-methyl-1H-benzimidazol-2-yl)pyridin-2-yl]-1,4-diazepane-1-carboxylate] were, in that order, 95%, 23 nM and 11 nM.
On to `Cn1c(-c2cc(N3CC(c4ccncn4)C3)ncc2Cl)nc2ccccc21` [Example A-125, 2-[5-chloro-2-(3-pyrimidin-4-ylazetidin-1-yl)pyridin-4-yl]-1-methyl-1H-benzimidazole], for which the inhibition at 0.05 µM in experiment [1] is 57%. Besides, the IC50 in the experiment on Gli-Luc/MEF cells (Smo) was determined as 135 nM.
In the case of `Cn1c(-c2cc(N3CCN(S(=O)(=O)CCO)CC3)ncc2F)nc2ccccc21` [Example D-15, 2-({4-[5-fluoro-4-(1-methyl-1H-benzimidazol-2-yl)pyridin-2-yl]piperazin-1-yl}sulfonyl)ethanol], in experiment [1], the inhibition at 0.05 µM is 101% and the 50% inhibitory concentration (IC50) is 19 nM. The half-maximal inhibitory concentration (IC50) in the experiment on Gli-Luc/MEF cells (Smo) turned out to be 11 nM.
`CN(CC(N)=O)c1cc(-c2nc3ccccc3n2C)c(Cl)cn1` [Example A-186, N~2~-[5-chloro-4-(1-methyl-1H-benzimidazol-2-yl)pyridin-2-yl]-N~2~-methylglycinamide]: the inhibition at 0.05 µM in experiment [1] came out at 78%. Moreover, the IC50 is 97 nM in experiment [1] and 65 nM in the experiment on Gli-Luc/MEF cells (Smo).
The like results for `CC(=O)NC1CN(c2cc(-c3nc4ccccc4n3C)c(Cl)cn2)C1` [Example A-43, N-{1-[5-chloro-4-(1-methyl-1H-benzimidazol-2-yl)pyridin-2-yl]azetidin-3-yl}acetamide] were, in that order, 86%, 190 nM and 92 nM.
The like results for `CN(C1CCN(c2cc(-c3nc4ccccc4n3C)c(F)cn2)CC1)S(C)(=O)=O` [Example D-10, N-{1-[5-fluoro-4-(1-methyl-1H-benzimidazol-2-yl)pyridin-2-yl]piperidin-4-yl}-N-methylmethanesulfonamlde] were, in that order, 102%, 7 nM and 4 nM.
Turning to `Cn1c(-c2cc(N3CCC(CS(C)(=O)=O)CC3)ncc2Cl)nc2cccnc21` [Example A-216, 2-(5-chloro-2-{4-[(methylsulfonyl)methyl]piperidin-1-yl}pyridin-4-yl)-3-methyl-3H-imidazo[4,5-b]pyridine], in experiment [1], the inhibition at 0.05 µM amounted to 98% and the IC50 stood at 10 nM. In the experiment with Gli-Luc/MEF cells (Smo), this molecule gave an IC50 of 7 nM.
The like results for `Cn1c(-c2nc(N3CCN(C=O)CC3)ccc2Cl)nc2ccccc21` [Example B-5, 4-[5-chloro-6-(1-methyl-1H-benzimidazol-2-yl)pyridin-2-yl]piperazine-1-carbaldehyde] were, in that order, 92%, 27 nM and 27 nM.
The like results for `CNC(=O)N1CCN(c2ncc(Cl)c(-c3nc4ccccc4n3C)n2)CC1` [Example C-7, 4-[5-Chloro-4-(1-methyl-1H-benzimidazol-2-yl)pyrimidin-2-yl]-N-methylpiperazine-1-carboxamide] were, in that order, 95%, 14 nM and 18 nM.
As to `Cn1c(-c2ccnc(N3CCCNCC3)c2)nc2ccccc21` [Example A-13, 2-[2-(1,4-diazepan-1-yl)pyridin-4-yl]-1-methyl-1H-benzimidazole], in experiment [1], the inhibition at 0.05 µM is 66% and the IC50 was found to be 423 nM. The molecule also displayed an IC50 in the experiment with Gli-Luc/MEF cells (Smo) of 89 nM.
The like results for `COC(=O)NC1CCN(c2cc(-c3nc4ccccc4n3C)c(Cl)cn2)CC1` [Example A-32, methyl {1-[5-chloro-4-(1-methyl-1H-benzimidazol-2-yl)pyridin-2-yl]piperidin-4-yl}carbamate] were, in that order, 89%, 7 nM and 1 nM.
For `CN1CC2(CCN(c3cc(-c4nc5ccccc5n4C)c(Cl)cn3)CC2)OC1=O` [Example A-197, 8-[5-chloro-4-(1-methyl-1H-benzimidazol-2-yl)pyridin-2-yl]-3-methyl-1-oxa-3,8-diazaspiro[4.5]decan-2-one] the same measures were 96%, 10 nM and 6.9 nM.
In the case of `CN(C1CCN(c2cc(-c3nc4ccccc4n3C)c(Cl)cn2)CC1)S(C)(=O)=O` [Example A-6, N-{1-[5-chloro-4-(1-methyl-1H-benzimidazol-2-yl)pyridin-2-yl]piperidin-4-yl}-N-methylmethanesulfonamide], in experiment [1], the inhibition at 0.05 µM amounted to 96%. This molecule also yielded a 50% inhibitory concentration (IC50) in the experiment on Gli-Luc/MEF cells (Smo) of 3 nM.
For the molecule `Cc1nnc(C)n1C1CCN(c2cc(-c3nc4ccccc4n3C)c(Cl)cn2)CC1` [Example A-124, 2-{5-chloro-2-[4-(3,5-dimethyl-4H-1,2,4-triazol-4-yl)piperidin-1-yl]pyridin-4-yl}-1-methyl-1H-benzimidazole], the inhibition at 0.05 µM in experiment [1] came out at 59%. The molecule further registered an IC50 in the experiment with Gli-Luc/MEF cells (Smo) of 52 nM.
As to `Cn1c(-c2cc(N3CCC(CS(C)(=O)=O)CC3)ncc2Cl)nc2ccccc21` [Example A-51, 2-(5-chloro-2-{4-[(methylsulfonyl)methyl]piperidin-1-yl}pyridin-4-yl)-1-methyl-1H-benzimidazole], in experiment [1], the inhibition at 0.05 µM came to 99% and the IC50 came out at 6 nM. In the experiment on Gli-Luc/MEF cells (Smo), this molecule returned an IC50 of 7 nM.
As to `Cn1c(-c2cc(N3CCC(C(=O)NCC(C)(C)O)CC3)ncc2Cl)nc2ccccc21` [Example A-212, 1-[5-chloro-4-(1-methyl-1H-benzimidazol-2-yl)pyridin-2-yl]-N-(2-hydroxy-2-methylpropyl)piperidine-4-carboxamide], in experiment [1], the inhibition at 0.05 µM stood at 99% and the IC50 was 12 nM. This molecule also gave an IC50 with Gli-Luc/MEF cells (Smo) of 29.1 nM.
The like results for `Cn1c(-c2cc(N3CCCn4cnc(CO)c4C3)ncc2Cl)nc2ccccc21` [Example A-110, {8-[5-chloro-4-(1-methyl-1H-benzimidazol-2-yl)pyridin-2-yl]-6,7,8,9-tetrahydro-5H-imidazo[1,5-a][1,4]diazepin-1-yl}methanol] were, in that order, 74%, 161 nM and 93 nM.
As to `CN(C)CC(=O)N1CCN(c2cc(-c3nc4ccccc4n3C)c(Cl)cn2)CC1` [Example A-192, 2-{4-[5-chloro-4-(1-methyl-1H-benzimidazol-2-yl)pyridin-2-yl]piperazin-1-yl}-N,N-dimethyl-2-oxoethanamine], in experiment [1], the inhibition at 0.05 µM was found to be 87% and the IC50 amounted to 15 nM. This molecule also gave an IC50 with Gli-Luc/MEF cells (Smo) of 2.4 nM.
For `Cn1c(-c2cc(N3CCN(C(=O)c4ncn[nH]4)CC3)ncc2Cl)nc2ccccc21` [Example A-56, 2-{5-chloro-2-[4-(1H-1,2,4-triazol-3-ylcarbonyl)piperazin-1-yl]pyridin-4-yl}-1-methyl-1H-benzimidazole] the same measures were 98%, 21 nM and 9 nM.
Consider `CNC(=O)N1CCN(c2nccc(-c3nc4ccccc4n3C)n2)CC1` [Example C-8, N-Methyl-4-[4-(1-methyl-1H-benzimidazol-2-yl)pyrimidin-2-yl]piperazine-1-carboxamide], for which the inhibition at 0.05 µM in experiment [1] came out at 54%. For the same molecule, the half-maximal inhibitory concentration (IC50) came to 538 nM in experiment [1] and 408 nM in the experiment on Gli-Luc/MEF cells (Smo).
The like results for `Cn1c(-c2ccnc(N3CCS(=O)(=O)CC3)c2)nc2ccccc21` [Example A-11, 2-[2-(1,1-dioxidothiomorpholin-4-yl)pyridin-4-yl]-1-methyl-1H-benzimidazole] were, in that order, 52%, 486 nM and 275 nM.
Regarding `COCCc1nnc2n1CCN(c1cc(-c3nc4ccccc4n3C)c(Cl)cn1)C2` [Example A-83, 7-[5-chloro-4-(1-methyl-1H-benzimidazol-2-yl)pyridin-2-yl]-3-(2-methoxyethyl)-5,6,7,8-tetrahydro[1,2,4]triazolo[4,3-a]pyrazine], in experiment [1], the inhibition at 0.05 µM amounted to 91% and the IC50 is 49 nM. Moreover, the IC50 in the experiment on Gli-Luc/MEF cells (Smo) was found to be 23 nM.
As to `CN1CC2(CCN(c3cc(-c4nc5ccccc5n4C)c(Cl)cn3)CC2)CC1=O` [Example A-77, 8-[5-chloro-4-(1-methyl-1H-benzimidazol-2-yl)pyridin-2-yl]-2-methyl-2,8-diazaspiro[4.5]decan-3-one], in experiment [1], the inhibition at 0.05 µM was 92% and the IC50 was 29 nM. Further, the IC50 in the experiment with Gli-Luc/MEF cells (Smo) is 15 nM.
Take `Cc1cnc(N2CCN(S(C)(=O)=O)CC2)cc1-c1nc2ccccc2n1C` [Example E-3, 1-methyl-2-{5-methyl-2-[4-(methylsulfonyl)piperazin-1-yl]pyridin-4-yl}-1H-benzimidazole]: in experiment [1], the inhibition at 0.05 µM is 97% and the IC50 came to 33 nM. In the experiment on Gli-Luc/MEF cells (Smo), this molecule yielded an IC50 of 38.1 nM.
